Source: patent publication US20040136926A1, “Intra-oral drug delivery system” (priority 2002, published 2004)
Where a SMILES comes first, the peptide text is derived from it. Bridges are numbered along the chain shown (N, C = ends). Roman numbers before positions name the chains, in order. Where no end group is shown, it is not given here. [ ]: non-standard residue; d: D form. pS = N[C@@H](COP(=O)(O)O)C(=O)O

What was measured:
[1] = literature (Raj, et al., 1992); cited from earlier work
[2] = Peptide adsorption to hydroxyapatite (HAP) beads; assay type: binding; conditions: for K × 10^−5 (affinity coefficient) / N × 10^6 (adsorption parameter): adsorption to HAP, C/Q = 1/KN + C/N
Text: The extent to which the hybrid molecule gets adsorbed was examined using hydroxyapatite (HAP) beads as described previously (Raj, et al., supra, 1992).

[3] = tested on: Candida albicans; test: Fungicidal activity of hybrid adsorbed HAP beads, fluorescent probes (membrane damage); assay type: cell-based; conditions: hybrid adsorbed HAP surface, as a function of time
Experimental: (§1) The fungicidal and bactericidal activity of the hybrid adsorbed HAP beads was determined using fluorescent probes. The increase in fluorescence as a function of microbial membrane damage was monitored. […] Candida albicans and Actinobacillus actinomycetemcomitans were used as the fungal and bacterial organisms, respectively.

[4] = tested on: Actinobacillus actinomycetemcomitans; test: Bactericidal activity of hybrid adsorbed HAP beads, fluorescent probes (membrane damage); assay type: cell-based; conditions: hybrid adsorbed HAP surface, as a function of time
Experimental: as §1

Compound	Affinity for HAP compared with whole statherin [1]	K × 10^−5 (affinity coefficient) [2] [liter mol^−1]	N × 10^6 (adsorption parameter) [2] [mol m^−2]	Affinity for HAP (in words) ([2]; hydroxyapatite beads)	Microbial membrane damage (increase in fluorescence) vs control HAP [3]	Microbial membrane damage (increase in fluorescence) vs control HAP [4]
D-D-D-E-E-K-F-L-R-R-I-G-R-F-G (DDDEEKFLRRIGRFG) [SNA15, Analog of SN15]	higher affinity for HAP than the whole molecule					
D-Sp-Sp-E-E-K-F-L-R-R-I-G-R-F-G (D[pS][pS]EEKFLRRIGRFG; UniProt P02808 20-34, looked up, fragment) [SN15, Amino-terminal 15-residue fragment of statherin]	higher affinity for HAP than the whole molecule					
D-Sp-Sp-EEKFLRRIGRFGYGYGPYQPVPEQPLYPQPYQPQYQQYTF (D[pS][pS]EEKFLRRIGRFGYGYGPYQPVPEQPLYPQPYQPQYQQYTF; UniProt P02808 20-62, looked up) [Statherin, Salivary phosphorylated polypeptide, reference compound]		11.1 ± 2.0	0.9 ± 0.05			
CC[C@H](C)[C@@H]1NC(=O)[C@H](CCCNC(=N)N)NC(=O)[C@@H](NC(=O)[C@H](CC(C)C)NC(=O)[C@@H](N)CCCNC(=N)N)CSSC[C@@H](C(=O)N[C@@H](CCCNC(=N)N)C(=O)OC[C@H](NC(=O)[C@H](CC(=O)O)NC(=O)[C@H](CC(=O)O)NC(=O)[C@H](CC(=O)O)NC(=O)[C@H](CCC(=O)O)NC(=O)[C@@H](N)CCC(=O)O)C(=O)O)NC(=O)[C@H](C(C)C)NC(=O)[C@H](CCCNC(=N)N)NC(=O)[C@H]([C@@H](C)CC)NC(=O)[C@H](C(C)C)NC(=O)[C@H](C(C)C)NC1=O [Hybrid] (I: H-RLCRIVVIRVCR / II: H-EEDDDS-OH; disulfide I:3-I:11; ester I:C-II:6; N-terminus assumed)		10.8 ± 1.8	1.6 ± 0.2	quite comparable to salivary statherin	significantly caused microbial membrane damage	significantly caused microbial membrane damage
